The test system of assay [1] is acute noxious thermal stimulus (tail withdrawal reflex). Kind of assay: Low-intensity tail flick test (rat). The class given is in vivo. The settings on record: dose 21.5 mg/kg. On the procedure: Method II. Low-Intensity Tail Flick Test (Rat) In the low-intensity tail flick test, the determination of the antinociceptive effect of the compounds according to the invention towards an acute noxious thermal stimulus is carried out by measuring the withdrawal reflex of the rat tail (tail flick) in response to a radiant heat beam (analgesia meter; model 2011 of the company Rhema Labortechnik, Hofheim, Germany) according to the method described by D'Amour and Smith (J. Pharm. Exp. Ther. 72, 74 79 (1941). To this end, the rats were placed in a plexiglas restrainer, and a low-intensity radiant heat beam (48° C.) was focused onto the dorsal surface of the tail root. […] Before administration of a compound according to the invention, the animals were pre-tested twice in the course of five minutes and the mean of these measurements was calculated as the pre-test mean. The antinociceptive effect was determined at 20, 40 and 60 min after peroral compound administration. The antinociceptive effect was calculated based on the increase in the tail withdrawal latency according to the following formula and is expressed as percentage of the maximum possible effect (MPE [%]): MPE=[(T1−T0)/(T2−T0)]*100 In this, T0 is the control latency time before and T1 the latency time after administration of the compound, T2 is the cutoff time and MPE is the maximum possible effect. […]
A general note: Hot-plate and tail-flick tests time the reaction to a heat stimulus.

Assay [2] concerns formalin-induced nociceptive behaviour, second (late) phase. In words: Formalin test carried out on mice. In kind it is in vivo. On the procedure:
Method III. Formalin Test Carried Out on Mice In the formalin test, the testing to determine the antinociceptive effect of the compounds according to the invention is carried out on male mice (NMRI, 20 to 30 g body weight, Iffa, Credo, Belgium). In the formalin test as described by D. Dubuisson et al., Pain 1977, 4, 161-174, a distinction is drawn between the first (early) phase (up to 10 minutes after the injection of formalin) and the second (late) phase (up to 60 minutes after the injection of formalin). The early phase, as an immediate reaction to the injection of formalin, is a model of acute pain, whereas the late phase is regarded as a model of persistent (chronic) pain (T. J. Coderre et al., Pain 1993, 52, 259-285). […] Subsequently, the nociceptive behaviour is continuously detected by observing the animals over a test period of three minutes in the second (late) phase of the formalin test (21 to 24 minutes after the injection of formalin). The pain behaviour is quantified by adding up the seconds over which the animals display licking and biting of the paw in question during the test period. […] Based on the quantification of the pain behaviour, the effect of the substance is determined in the formalin test as a percentage change relative to the corresponding control. […]

Assay [3] has as its target T1, KCNQ2/3 channels (Homo sapiens, UniProt O43525+O43526).
T1 construct: expressed in transfected cells; host or cells: CHO-K1 cells, kept under selection antibiotics
In words: Fluorescence assay using a voltage sensitive dye (fluorimetry). In kind it is cell-based. The settings on record: CHO-K1 cells expressing KCNQ2/3 channels; for Emax: relative to retigabine = 100%, read-out: Fluorimetry % efficacy (retigabine = 100%). On the procedure:
Pharmacological Experiments Method I. Fluorescence Assay Using a Voltage Sensitive Dye (Fluorimetry)
[…] CHO-K1 cells expressing KCNQ2/3 channels are cultivated adherently at 37° C., 5% CO2 and 95% humidity in cell culture bottles (e.g. 80 cm^2 TC flasks, Nunc) with DMEM-high glucose (Sigma Aldrich, D7777) including 10% FCS (PAN Biotech, e.g. 3302-P270521) or alternatively MEM Alpha Medium (1×, liquid, Invitrogen, #22571), 10% fetal calf serum (FCS) (Invitrogen, #10270-106, heat-inactivated) and the necessary selection antibiotics.
Before being sown out for the measurements, the cells are washed with 1×DPBS buffer Ca^2+/Mg^2+-free (e.g. Invitrogen, #14190-094) and detached from the bottom of the culture vessel by using Accutase (PAA Laboratories, #L11-007) (incubation with Accutase for 15 min at 37° C.). The cell number is determined using a CASY™ cell counter (TCC, Schärfe System). Depending on the optimal density for each individual cell line, 20,000-30,000 cells/well/100 μl are seeded onto 96-well Corning™ CellBIND™ assay plates (Flat Clear Bottom Black Polystyrene Microplates, #3340). Freshly seeded cells are then left to settle for one hour at room temperature, followed by incubation for 24 hours at 37° C., 5% CO2 and 95% humidity.
The voltage-sensitive fluorescent dye from the Membrane Potential Assay Kit (Red™ Bulk format part R8123 for FLIPR, MDS Analytical Technologies™) is prepared by dissolving the contents of one vessel Membrane Potential Assay Kit Red Component A in 200 ml of extracellular buffer (ES buffer, 120 mM NaCl, 1 mM KCl, 10 mM HEPES, 2 mM CaCl2, 2 mM MgCl2, 10 mM glucose; pH 7.4). After removal of the nutrient medium, the cells are washed once with 200 μl of ES buffer, then loaded for 45 min at room temperature in 100 μl of dye solution in the dark.
Fluorescence measurements are carried out in a BMG Labtech FLUOstar™, BMG Labtech NOVOstar™ or BMG Labtech POLARstar™ instrument (525 nm excitation, 560 nm emission, Bottom Read mode). After incubation with the dye, 50 μl of the test substances in the desired concentrations, or 50 μl of ES buffer for control purposes, are applied to the wells of the assay plate and incubated for 30 min at room temperature while being shielded from light. The fluorescence intensity of the dye is then measured for 5 min and the fluorescence value F1 of each well is thus determined at a given, constant time. 15 μl of a KCl solution are then added to each well (final concentration of potassium ions 92 mM). The change in fluorescence intensity is subsequently monitored until all the relevant values have been obtained (mainly 5-30 min). At a given time post KCl application, a fluorescence value F2 is determined, in this case at the time of the fluorescence peak.
For calculation, the fluorescence intensity F2 is corrected for the fluorescence intensity F1, and the activity (ΔF/F) of the target compound on the potassium channel is determined as follows:
In order to determine whether a substance has agonistic activity,
[formula] can be related to
[formula] of control wells.
[formula] is determined by adding to the well only the buffer solution instead of the test substance, determining the value F1K of the fluorescence intensity, adding the potassium ions as described above, and measuring a value F2K of the fluorescence intensity. F2K and F1K are then calculated as follows: […]
A substance has an agonistic activity on the potassium channel if
[formula] is greater than
Independently of the comparison of
[formula] it is possible to conclude that a target compound has agonistic activity if
[formula] increases dose dependently.
Calculations of EC50 and IC50 values are carried out with the aid of ‘Prism v4.0’ software (GraphPad Software™).

pEC50: −log10 of the molar value.

The record followed here is patent US8470852B2, “Substituted 2-amino-quinoline-3-carboxamides as KCNQ2/3 modulators” (Gruenenthal GmbH, priority 2010, dated 2013).

In general, pEC50 refers to the EC50 on a negative log10 scale, so that one unit is a factor of ten.

In the case of `CCNc1nc2cc(C(F)(F)F)ccc2c(C)c1C(=O)NCc1cccc(F)c1` [Example 1, 2-ethylamino-N-[(3-fluorophenyl)-methyl]-4-methyl-7-(trifluoromethyl)-quinoline-3-carboxylic acid amide], the “Low intensity tail flick, rat, peroral, MPE (dose)” value in assay [1] is given as 44% (21.5). Besides, the “Formalin test, mice, intravenous, MPE (dose)” value in assay [2] (dose 4.64 mg/kg) was 71% (4.64). Besides, in assay [3], the negative-log EC50 (pEC50) is 6.60 and the Emax was 141%.

For the compound `Cc1c(C(=O)NCc2cccc(F)c2)c(N2CCCC2)nc2cc(C(F)(F)F)ccc12` [Example 2, N-[(3-fluorophenyl)-methyl]-4-methyl-2-pyrrolidin-1-yl-7-(trifluoromethyl)-quinoline-3-carboxylic acid amide], in assay [3], the negative-log EC50 (pEC50) is 6.10 and the Emax worked out at 186%.

On to `Cc1c(C(=O)NCc2ccc(F)cc2)c(N(C)C)nc2cc(C(F)(F)F)ccc12` [Example 3, 2-dimethylamino-N-[(4-fluorophenyl)-methyl]-4-methyl-7-(trifluoromethyl)-quinoline-3-carboxylic acid amide], for which, in assay [3], the pEC50 was 6.46 and the Emax is 105%.

`Cc1c(C(=O)NCc2cccc(F)c2)c(N(C)C)nc2cc(C(F)(F)F)ccc12` [Example 4, 2-dimethylamino-N-[(3-fluorophenyl)-methyl]-4-methyl-7-(trifluoromethyl)-quinoline-3-carboxylic acid amide]: in assay [3], the pEC50 was 6.29 and the Emax was 140%.

Regarding `CCN(CC)c1nc2cc(C(F)(F)F)ccc2c(C)c1C(=O)NCc1ccc(F)cc1` [Example 5, 2-diethylamino-N-[(4-fluorophenyl)-methyl]-4-methyl-7-(trifluoromethyl)-quinoline-3-carboxylic acid amide], in assay [3], the pEC50 was 6.14 and the Emax stood at 205%.

Take `Cc1c(C(=O)NCc2ccc(F)cc2)c(N2CCCC2)nc2cc(C(F)(F)F)ccc12` [Example 6, N-[(4-fluorophenyl)-methyl]-4-methyl-2-pyrrolidin-1-yl-7-(trifluoromethyl)-quinoline-3-carboxylic acid amide]: in assay [3], the pEC50 was 6.23 and the Emax was determined as 204%.

`CCN(CC)c1nc2cc(C(F)(F)F)ccc2c(C)c1C(=O)NCc1cccc(F)c1` [Example 7, 2-diethylamino-N-[(3-fluorophenyl)-methyl]-4-methyl-7-(trifluoromethyl)-quinoline-3-carboxylic acid amide]: the “Formalin test, mice, intravenous, MPE (dose)” value in assay [2] (dose 10.0 mg/kg) is 65% (10.0). In addition, in assay [3], the pEC50 was 6.33 and the Emax was 199%.

Take `CCNc1nc2cc(C(F)(F)F)ccc2c(C)c1C(=O)NCc1ccc(F)cc1` [Example 8, 2-ethylamino-N-[(4-fluorophenyl)-methyl]-4-methyl-7-(trifluoromethyl)-quinoline-3-carboxylic acid amide]: in assay [3], the pEC50 was 6.51 and the Emax amounted to 157%.

On to `CNc1nc2cc(C(F)(F)F)ccc2c(C)c1C(=O)NCc1cccc(F)c1` [Example 9, N-[(3-fluorophenyl)-methyl]-4-methyl-2-methylamino-7-(trifluoromethyl)-quinoline-3-carboxylic acid amide], for which, in assay [3], the pEC50 is 6.39 and the Emax is 111%.

For the compound `Cc1c(C(=O)NCc2cccc(F)c2)c(N2CCOCC2)nc2cc(C(F)(F)F)ccc12` [Example 10, N-[(3-Fluorophenyl)-methyl]-4-methyl-2-morpholin-4-yl-7-(trifluoromethyl)-quinoline-3-carboxylic acid amide], in assay [3], the pEC50 is 5.97 and the Emax was 181%.
